The source of these data is patent US20090104598A1, “Dopamine D2 receptor gene variants” (CENTRE FOR ADDICTION AND MENTAL HEALTH, priority 2006, published 2009).

For data set [1] the following is noted: treatment refractory patients; Miller 1996; cited from earlier work.
Data set [2] is described as follows: clinical. To be noted: human, in vivo. An excerpt:
Thus, % Score Change=(6 Month Score−Baseline Score)/(Baseline Score).

As to `CN1CCN(C2=Nc3cc(Cl)ccc3Nc3ccccc32)CC1` [clozapine], the “blood clozapine threshold level that increases likelihood of clinical response” value in data set [1] was 350 ng/mL. The concentration at 6 month in data set [2] is 399 ng/mL.
